From US20230331803A1, “CO-AGONISTS OF THE GLP-1 AND AMYLIN RECEPTORS” (priority 2020, published 2023)
Read-outs that look alike come from different tables or passages of the source. Starred links: 1 amine or outer side, 2 acyl side, 3 side chain; linkers in the order of their positions; H or OH if unused. Non-standard residues stand in square brackets, D forms with d. Groups on a side chain read outwards from the residue. *: point of attachment. Butyryl(4-SO2NHCO(CH2)16Tz) = O=C(CCCCCCCCCCCCCCCCc1nnn[nH]1)NS(=O)(=O)CCCC(=O)*; Decanoyl(10-(4-HOOC-PhO)) = O=C(O)c1ccc(OCCCCCCCCCC(=O)*)cc1; C20 diacid = O=C(O)CCCCCCCCCCCCCCCCCCC(=O)*; C18 diacid = O=C(O)CCCCCCCCCCCCCCCCC(=O)*; γGlu = O=C(O)[C@H](CCC(=O)[*:2])N[*:1]; εLys = N[C@@H](CCCCN[*:1])C(=O)[*:2]; AEEA = NCCOCCOCC(=O)O; Aib = CC(C)(N)C(=O)O

Tests used:
[1] = target: T1, human GLP-1 receptor (Homo sapiens, UniProt P43220); assay: Human GLP-1 receptor in vitro potency assay (CRE-luciferase reporter, BHK cells); type: cell-based
T1 construct: expressed in transfected cells; host or cells: BHK (Baby Hamster Kidney) cells, clone BHK 467-12A KZ-10, stably transfected, with CRE-luciferase reporter
T1 sequence (P43220 24-463): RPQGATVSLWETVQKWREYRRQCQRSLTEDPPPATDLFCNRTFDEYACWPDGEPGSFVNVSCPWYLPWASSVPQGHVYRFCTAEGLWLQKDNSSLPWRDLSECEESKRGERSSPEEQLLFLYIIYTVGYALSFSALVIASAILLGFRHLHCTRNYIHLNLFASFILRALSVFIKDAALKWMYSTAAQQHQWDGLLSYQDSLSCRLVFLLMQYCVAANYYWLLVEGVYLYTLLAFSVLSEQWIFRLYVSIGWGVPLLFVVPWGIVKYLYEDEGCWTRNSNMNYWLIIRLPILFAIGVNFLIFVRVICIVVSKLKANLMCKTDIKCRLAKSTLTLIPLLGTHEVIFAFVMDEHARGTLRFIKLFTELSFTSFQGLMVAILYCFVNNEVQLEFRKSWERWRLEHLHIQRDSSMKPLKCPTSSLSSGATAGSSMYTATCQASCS
Experimental: It is thus possible to measure GLP-1 receptor activity using a CRE-luciferase reporter gene introduced into Baby Hamster Kidney (BHK) cells co-expressing the GLP-1 receptor.
Cells were aliquoted and stored at -180° C. until use.
Plates were sealed and incubated at room temperature with gentle shaking for 30 minutes while protected from light. Luminescence was detected on a luminescence plate reader e.g. a Synergy 2 (BioTek).

[2] = target: T2, human amylin receptor (hAmyR3) (Homo sapiens, UniProt O60896+P30988); assay: Human amylin receptor in vitro potency assay (CRE-luciferase reporter, BHK cells); type: cell-based;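 note: BHK cells expressing human calcitonin receptor plus RAMP3 (amylin-3 receptor) with a CRE-luciferase reporter, agonist activity read as luminescence from cAMP-driven transcription, 7-point serial dilutions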
T2 construct: host or cells: BHK cells (Hollex-1 line: human calcitonin receptor (a) + CRE-Luc), further transfected with human RAMP3
T2 sequence (P30988 25-474): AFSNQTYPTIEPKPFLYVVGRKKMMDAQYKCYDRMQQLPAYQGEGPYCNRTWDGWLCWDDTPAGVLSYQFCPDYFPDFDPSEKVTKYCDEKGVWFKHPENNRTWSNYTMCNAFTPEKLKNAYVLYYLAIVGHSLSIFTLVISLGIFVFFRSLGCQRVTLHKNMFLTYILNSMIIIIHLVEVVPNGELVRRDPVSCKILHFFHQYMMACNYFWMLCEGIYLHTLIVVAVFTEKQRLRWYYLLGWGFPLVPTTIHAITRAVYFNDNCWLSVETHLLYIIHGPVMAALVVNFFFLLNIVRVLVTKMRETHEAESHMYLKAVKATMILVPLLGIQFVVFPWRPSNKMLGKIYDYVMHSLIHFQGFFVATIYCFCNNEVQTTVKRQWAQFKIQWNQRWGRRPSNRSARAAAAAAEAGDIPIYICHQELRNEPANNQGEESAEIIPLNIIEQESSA
T2 sequence (O60896 24-148): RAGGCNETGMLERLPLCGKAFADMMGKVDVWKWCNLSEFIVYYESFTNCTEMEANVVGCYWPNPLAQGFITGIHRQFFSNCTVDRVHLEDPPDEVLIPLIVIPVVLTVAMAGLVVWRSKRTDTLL

[3] = Pharmacokinetic studies in Beagle dogs after oral administration of SNAC-based tablets; type: in vivo; details: for half-life: T½ (hr)
Experimental: To be able to evaluate oral exposure following tablet dosing, tablet compositions comprising the test substance and SNAC (sodium N-(8-(2-hydroxybenzoyl)amino)caprylate) were prepared by mixing test substance with roller compacted SNAC and magnesium stearate as, e.g., described in WO 2019/149880. The amount of SNAC in the tablet composition was 100-300 mg, the amount of magnesium stearate in the tablet composition was 7.7 mg, and the target amount of each test substance in the tablet composition was 3-4 mg.
Pharmacokinetic (PK) studies in Beagle dogs were conducted to determine the exposure of the GLP-1 receptor-amylin receptor co-agonist after peroral administration.
For the pharmacokinetic studies male Beagle dogs were used, 2-7, or 1 to 5, years of age and weighing approximately 10-15, such as 10-12, kg at the start of the studies. The dogs were group housed in pens (12 hours light: 12 hours dark),and fed individually and restrictedly once daily with Royal Canin Medium Adult dog (Royal Canin Products, China Branch, or Brogaarden A/S, Denmark). Exercise and group social were permitted daily, whenever possible. The dogs were used for repeated pharmacokinetic studies with a suitable wash-out period between successive dosing. An appropriate acclimatisation period was given prior to initiation of the first pharmacokinetic study. All handling, dosing and blood sampling of the animals were performed by trained and skilled staff. Before the studies the dogs were fasted overnight and from 0 to 4 h after dosing. Besides, the dogs were restricted to water 1 hour before dosing until 4 hours after dosing, but otherwise have ad libitum access to water during the whole period.
The tablets used for the p.o. studies described herein were immediate release SNAC-based tablets dosed orally.
The tablets were administered in the following manner: 10 min prior to tablet administration the dogs may be dosed subcutaneously with approximately 3 nmol/kg of SEQ ID NO: 237, tablets were placed in the back of the mouth of the dog to prevent chewing. The mouth was then closed, and 10 mL of tap water was given by a syringe or gavage to facilitate swallowing of the tablet.
Blood was sampled at predefined time points for up till 240 hours, such as up till 10 hr, post dosing to adequately cover the full plasma concentration-time absorption profile of the GLP-1 agonist.
For each blood sampling time point approximately 0.8 mL of whole blood was collected in a 1.5 mL EDTA coated tube, and the tube was gently turned to allowing mixing of the sample with the EDTA. Blood samples (for example 0.8 mL) were collected in EDTA buffer (8 mM) and then centrifuged at 4° C. and 2000 G for 10 minutes. Plasma was pipetted into Micronic tubes on dry ice, and kept at -20° C. until analysis.
Blood samples were taken as appropriate, for example from a venflon in the cephalic vein in the front leg for the first 2 hours and then with syringe from the jugular vein for the rest of the time points (the first few drops were allowed to drain from the venflon to avoid heparin saline from the venflon in the sample).
Plasma concentration of the GLP-1 receptor-amylin receptor co-agonists were determined using LCMS. Individual plasma concentration-time profiles were analysed by a non-compartmental model in WinNonlin v. 5.0 or Phoenix v. 6.2 or 6.3 (Pharsight Inc., Mountain View, CA, USA), or other relevant software for PK analysis.
The individual plasma concentration-time profiles were analysed by non-compartmental analysis (NCA).

[4] = system: Sprague Dawley (SD) rats; assay: Acute food intake in ad libitum fed rats after a single subcutaneous administration; type: in vivo, rat; details: Table 6a, rat, single administration;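 note: food intake monitored in the HM2 system, three rats per cage kept on a reversed light cycle, with food and water freely available after the subcutaneous dose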
Source text: Sprague Dawley (SD) rats from Taconic Europe, Denmark were used for the acute food intake experiments, wherein the principles of laboratory animal care were followed.
The rats arrived at least 10-14 days before the start of the experiment to allow acclimatisation to experimental settings. During this period, the animals were handled at least 2 times. Immediately upon arrival, rats were put on a reversed light cycle (dark from 11am - 11pm) and put in the HM2 system and ID chipped. Three rats were housed in each cage. […] The rats were dosed once according to body weight with a 0.01-3 mg/kg solution administered subcutaneously (sc). The time of dosing was recorded for each group.
After dosing, the rats were returned to their home cages, where they had access to food and water. […] At the end of the experimental session, the animals were euthanised.

[5] = Table 4a, BHK cells expressing human GLP-1R, CRE-Luc, 3 hours, read-out: Human GLP-1R potency [EC50 (pM)]
[6] = Table 4a, BHK hAmyR3/CRE-Luc cells, 3 hours, read-out: Human AmyR3 potency [EC50 (pM)]
[7] = male, Beagle, dog, in vivo, po, Tmax (hr)
[8] = dogs, oral administration (tablet)

H-H[Aib]EGTFTSDVSSYLEEQAAREFIAWLVRGRK([AEEA-AEEA-γGlu-C20 diacid])GGGGEASELSTAALGRLSAELHELATLPRTETGSGSP-NH2 [Compound 0502]
EC50 [1, 5]: 8.4 pM
EC50 [2, 6]: 9 pM
Tmax ([3]; male, Beagle, dog, in vivo, po): 4.0 h
Tmax [3, 7]: 2 h
half-life ([3]; male, Beagle, dog, in vivo, po): 66 h
Food intake relative to vehicle (%) 0-24 hr, 10 nmol/kg [4]: 61%
Food intake relative to vehicle (%) 24-48 hr, 10 nmol/kg [4]: 72%

H-H[Aib]EGTFTSDVSK([AEEA-AEEA-γGlu-C18 diacid])YLEEQAAREFIAWLVRGRGGGGGEASELSTAALGRLSAELHELATLPRTETGSGSP-NH2 [Compound 0640]
EC50 [1, 5]: 2.3 pM
EC50 [2, 6]: 6 pM
AUC/D ([3]; dog, in vivo, po): 7.57 kg·h/L
Cmax/D ([3]; dog, in vivo, po): 0.37 kg/L
Tmax [3, 7]: 1.5 h
half-life ([3]; male, Beagle, dog, in vivo, po): 29 h
Food intake relative to vehicle (%) 0-24 hr, 10 nmol/kg [4]: 28%
Food intake relative to vehicle (%) 24-48 hr, 10 nmol/kg [4]: 66%

H-H[Aib]EGTFTSDVSSYLEEQAAREFIAWLVRGRK(Butyryl(4-SO2NHCO(CH2)16Tz))EASELSTAALGRLSAELHELATLPRTETGSGSP-NH2 [Compound 0103]
EC50 [1, 5]: 28.1 pM
EC50 [2, 6]: 11.6 pM
Food intake relative to vehicle (%) 0-24 hr, 10 nmol/kg [4]: 80%
Food intake relative to vehicle (%) 24-48 hr, 10 nmol/kg [4]: 80%

HWEGTFTSDVSSYLEEQAARK([AEEA-AEEA-γGlu-Decanoyl(10-(4-HOOC-PhO))])FIEWLVRGK([AEEA-AEEA-γGlu-Decanoyl(10-(4-HOOC-PhO))])GEGGGGGEASELSTAALGRLSAELHELATLPRTETGSGSP-NH2 [Compound 0100]
EC50 [1]: 6.8 pM
EC50 [2]: 30.4 pM
Food intake relative to vehicle (%) 0-24 hr, 10 nmol/kg [4]: 85%
Food intake relative to vehicle (%) 24-48 hr, 10 nmol/kg [4]: 86%

H-H[Aib]EGTFTSDVSSYLEGQAAREFIAWLVRGRK([AEEA-AEEA-γGlu-C18 diacid])GGGGEASELSTAALGRLSAELHELATLPRTETGSGSP-NH2 [Compound 0151]
EC50 [1, 5]: 10.4 pM
EC50 [2, 6]: 9.5 pM
Food intake relative to vehicle (%) 0-24 hr, 10 nmol/kg [4]: 29%
Food intake relative to vehicle (%) 24-48 hr, 10 nmol/kg [4]: 70%

B1: H-Aib-EGTFTSDVS-K([2-[2-[2-[[2-[2-[2-[[(4S)-4-Carboxy-4-[[4-[(19-Carboxynonadecanoylamino)Methyl]Cyclohexanecarbonyl]Amino]Butanoyl]Amino]Ethoxy]Ethoxy]Acetyl]Amino]Ethoxy]Ethoxy]Acetyl])-YLEEQAAREFIA … (peptide)
peptide: H-H[Aib]EGTFTSDVSK([AEEA-AEEA-γGlu-4‑(aminomethyl)cyclohexanecarbonyl-C20 diacid])YLEEQAAREFIAWLVRGRGGGGGEASELSTAALGRLSAELHELATLPRTETGSGSP-NH2
AUC/D [3, 8]: 11.10 kg·h/L
Cmax/D [3, 8]: 0.45 kg/L
Tmax [3, 8]: 2.0 h
T½ [3, 8]: 27 h
Food intake relative to vehicle (%) 0-24 hr, 10 nmol/kg [4]: 50%
Food intake relative to vehicle (%) 24-48 hr, 10 nmol/kg [4]: 45%

B2: H-Aib-EGTFTSDVSSYLEEQAAREFIAWLVRGR-K([(2S)-2-Amino-6-[[2-[2-[2-[[2-[2-[2-[[(4S)-4-Carboxy-4-[[4-[(19-Carboxynonadecanoylamino)Methyl]Cyclohexanecarbonyl]Amino]Butanoyl]Amino]Ethoxy]Ethoxy]Acetyl]Amino … (peptide)
peptide: H[Aib]EGTFTSDVSSYLEEQAAREFIAWLVRGRK([εLys-AEEA-AEEA-γGlu-4‑(aminomethyl)cyclohexanecarbonyl-C20 diacid])GGGGEASELSTAALGRLSAELHELATLPRTETGSGSP-NH2
AUC/D [3, 8]: 6.53 kg·h/L
Cmax/D [3, 8]: 0.14 kg/L
Tmax [3, 8]: 2.0 h
T½ [3, 8]: 23 h
Food intake relative to vehicle (%) 0-24 hr, 10 nmol/kg [4]: 47%
Food intake relative to vehicle (%) 24-48 hr, 10 nmol/kg [4]: 44%

B3: H-Aib-EGTFTSDVSSYLEEQAAREFIAWLVRGRP-K([2-[2-[2-[[2-[2-[2-[[(4S)-4-Carboxy-4-[[4-[(19-Carboxynonadecanoylamino)Methyl]Cyclohexanecarbonyl]Amino]Butanoyl]Amino]Ethoxy]Ethoxy]Acetyl]Amino]Ethoxy]Ethoxy]A … (peptide)
peptide: H[Aib]EGTFTSDVSSYLEEQAAREFIAWLVRGRPK([AEEA-AEEA-γGlu-4‑(aminomethyl)cyclohexanecarbonyl-C20 diacid])GGGGEASELSTAALGRLSAELHELATLPRTETGSGSP-NH2
AUC/D [3, 8]: 3.25 kg·h/L
Cmax/D [3, 8]: 0.12 kg/L
Tmax [3, 8]: 3.0 h
T½ [3, 8]: 25 h
Food intake relative to vehicle (%) 0-24 hr, 10 nmol/kg [4]: 73%
Food intake relative to vehicle (%) 24-48 hr, 10 nmol/kg [4]: 53%

B4: HWEGTFTSDVSSYLEEQAAR-K([2-[2-[2-[[2-[2-[2-[[(4S)-4-Carboxy-4-[[4-[(19-Carboxynonadecanoylamino)Methyl]Cyclohexanecarbonyl]Amino]Butanoyl]Amino]Ethoxy]Ethoxy]Acetyl]Amino]Ethoxy]Ethoxy]Acetyl])-FIEWLVR … (peptide)
peptide: HWEGTFTSDVSSYLEEQAARK([AEEA-AEEA-γGlu-4‑(aminomethyl)cyclohexanecarbonyl-C20 diacid])FIEWLVRGRGEGGGGGASELSTAALGRLSAELHELATLPRTETGSGSP-NH2
AUC/D [3, 8]: 19.54 kg·h/L
Cmax/D [3, 8]: 0.36 kg/L
Tmax [3, 8]: 1.8 h
T½ [3, 8]: 40 h
Food intake relative to vehicle (%) 0-24 hr, 10 nmol/kg [4]: 71%
Food intake relative to vehicle (%) 24-48 hr, 10 nmol/kg [4]: 46%
